Assay [1] addresses recombinant BACE1 protein (Homo sapiens, UniProt P56817). Nature of the assay: Biochemical FRET based assay. The conditions noted are these: recombinant BACE1 1 μg/ml, 120 minutes at room temperature, pH 5.0; for IC50: read-out: Biochemical FRET based assay pIC50 (converted). In short, it runs like this: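 Proteolysis was read as the rise in donor fluorescence (320 nm excitation, 405 nm emission) from T0 to T120, expressed in RFU. The reaction ran 120 minutes at room temperature at pH 5.0 in citrate buffer with 4% DMSO, using […] quenched Swedish APP peptide and 1 μg/ml BACE1.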

The test system of a further assay is Abeta 1-42. Nature of the assay: Cellular αLisa assay in SKNBE2 cells, Abeta 1-42. In kind it is cell-based, human. The conditions noted are these: incubated for 18 hours; for IC50: Homo sapiens, SKNBE2, 18 h, read-out: Cellular αLisa assay in SKNBE2 cells Abeta 42 pIC50 (converted). In short, it runs like this: (§1)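 Secreted Abeta levels were measured by sandwich αLisa, pairing biotin-AbN/25 donor beads with Ab4G8 acceptor beads for total Abeta or cAb42/26 for Abeta 1-42, read at 615 nm after 650 nm excitation following 1 hour. Cells were SKNBE2 expressing wild-type hAPP695, exposed to compound for 18 hours.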

A further assay relates to Abeta total. As to the kind of experiment: Cellular αLisa assay in SKNBE2 cells, Abeta total. It counts as cell-based, human. Conditions: incubated for 18 hours; for IC50: Homo sapiens, SKNBE2, 18 h, read-out: Cellular αLisa assay in SKNBE2 cells Abetatotal pIC50 (converted). The essentials: as §1

Sequence of recombinant BACE1 protein (P56817 46-501): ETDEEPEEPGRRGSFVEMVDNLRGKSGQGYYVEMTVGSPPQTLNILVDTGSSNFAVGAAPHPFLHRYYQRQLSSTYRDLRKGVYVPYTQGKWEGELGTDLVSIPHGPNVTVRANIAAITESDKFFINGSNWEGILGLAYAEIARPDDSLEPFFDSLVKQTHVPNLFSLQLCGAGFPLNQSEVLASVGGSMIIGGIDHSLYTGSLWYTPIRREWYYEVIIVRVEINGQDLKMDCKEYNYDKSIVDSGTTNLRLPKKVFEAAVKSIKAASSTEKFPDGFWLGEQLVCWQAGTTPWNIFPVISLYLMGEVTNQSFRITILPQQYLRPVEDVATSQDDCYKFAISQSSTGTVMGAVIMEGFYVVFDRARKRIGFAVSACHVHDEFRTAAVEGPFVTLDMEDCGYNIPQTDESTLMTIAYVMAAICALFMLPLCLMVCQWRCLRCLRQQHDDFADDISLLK

For `CC1(c2cc(NC(=O)c3cnc(C(F)(F)F)cn3)ccc2F)COCC(N)=N1` (stereo not drawn) [Compound 147], the “Biochemical FRET based assay pIC50” value in assay [1] came to 6.7. Besides, the “Cellular αLisa assay in SKNBE2 cells Abeta 42 pIC50” value in the assay on Abeta 1-42 was 7.59. Also, the “Cellular αLisa assay in SKNBE2 cells Abetatotal pIC50” value in the assay with Abeta total turned out to be 7.6.
On to `C[C@@]1(c2cc(-c3cncnc3)c(F)cc2F)COC2(CC2)C(N)=N1` [Compound 150], for which the values for the IC50 (in assay [1]; with Abeta 1-42; in the assay on Abeta total) were 1100 nM, 200 nM and 200 nM, respectively.
For the compound `C[C@]1(c2cc(-c3cncnc3)c(F)cc2F)COCC(N)=N1` [Compound 155], the “Biochemical FRET based assay pIC50” value in assay [1] was below 4.52. Further, in the assay with Abeta 1-42, the “Cellular αLisa assay in SKNBE2 cells Abeta 42 pIC50” value is below 5. The “Cellular αLisa assay in SKNBE2 cells Abetatotal pIC50” value with Abeta total is below 5.
Turning to `C[C@]1(c2cc(NC(=O)c3ccncn3)ccc2F)N=C(N)CO[C@H]1C(F)(F)F` [Compound 168], the IC50 in assay [1] was 832 nM; in the assay with Abeta 1-42 it was 79.4 nM; in the assay on Abeta total, 74.1 nM.
In the same order, the values of `CC1(c2cccc(-c3cncc(C#N)c3)c2)N=C(N)COC1C(F)(F)F` (stereo not drawn) [Compound 171] are 1120 nM, 135 nM and 129 nM.
The corresponding values for `COc1cnc(C(=O)Nc2ccc(F)c([C@@]3(C)N=C(N)CO[C@@]3(F)C(F)(F)F)c2)cn1` [Compound 180] are 44.7 nM, 33.9 nM and 28.2 nM.
Take `C[C@]1(c2cc(NC(=O)c3ccncn3)ccc2F)N=C(N)CO[C@@]1(F)C(F)(F)F` [Compound 182]: the IC50 was 550 nM in assay [1], 209 nM with Abeta 1-42 and 204 nM with Abeta total.
For the compound `N#Cc1ccc(C(=O)Nc2cccc(C3(C4CC4)N=C(N)COC3(F)C(F)(F)F)c2)nc1` (stereo not drawn) [Compound 198], the “Biochemical FRET based assay pIC50” value in assay [1] came out at 6.52. Further, in the assay on Abeta 1-42, the “Cellular αLisa assay in SKNBE2 cells Abeta 42 pIC50” value amounted to 6.7. Further, the “Cellular αLisa assay in SKNBE2 cells Abetatotal pIC50” value in the assay with Abeta total is recorded as 6.69.
Take `COc1cnc(C(=O)Nc2cccc([C@@]3(C4CC4)N=C(N)CO[C@]3(F)C(F)(F)F)c2)cn1` [Compound 202]: the IC50 was 479 nM in assay [1], 537 nM in the assay on Abeta 1-42 and 537 nM in the assay with Abeta total.
Turning to `COc1cnc(C(=O)Nc2cccc([C@@]3(C4CC4)N=C(N)CO[C@@]3(F)C(F)(F)F)c2)cn1` [Compound 203], the IC50 in assay [1] was 20.4 nM; in the assay on Abeta 1-42 it was 37.2 nM; with Abeta total it was 37.2 nM.
On to `N#Cc1ccc(C(=O)Nc2ccc(F)c([C@@]3(C4CC4)N=C(N)CO[C@@H]3F)c2)nc1` [Compound 214, (2R,3R)—N-[3-(5-amino-3-cyclopropyl-2-fluoro-3,6-dihydro-2H-1,4-oxazin-3-yl)-4-fluorophenyl]-5-cyanopyridine-2-carboxamide], for which the IC50 was 110 nM in assay [1], 794 nM in the assay with Abeta 1-42 and 708 nM in the assay on Abeta total.
In the case of `N#Cc1ccc(C(=O)Nc2ccc(F)c(C3(C4CC4)N=C(N)COC3F)c2)nc1` (stereo not drawn) [Compound 215], in assay [1], the “Biochemical FRET based assay pIC50” value stood at 6.3. The “Cellular αLisa assay in SKNBE2 cells Abeta 42 pIC50” value with Abeta 1-42 is listed as 6.51. For the same compound, the “Cellular αLisa assay in SKNBE2 cells Abetatotal pIC50” value in the assay with Abeta total came to 6.52.
Turning to `NC1=N[C@@](c2cc(NC(=O)c3ncc(Cl)cc3F)ccc2F)(C2CC2)[C@H](F)OC1` [Compound 220], the results for the IC50 (in assay [1]; in the assay with Abeta 1-42; in the assay on Abeta total) were 468 nM, 355 nM and 347 nM, respectively.
In the same order, the values of `N#Cc1cncc(-c2ccc(F)c([C@@]3(C4CC4)N=C(N)CO[C@H]3F)c2)c1` [Compound 223] are 24500 nM, above 10000 nM and above 10000 nM.
Take `NC1=N[C@@](c2cc(-c3cncnc3)ccc2F)(C2CC2)[C@H](F)OC1` [Compound 224, (5R,6S)-5-cyclopropyl-6-fluoro-5-(2-fluoro-5-pyrimidin-5-ylphenyl)-5,6-dihydro-2H-1,4-oxazin-3-amine]: the IC50 in assay [1] was 14800 nM; with Abeta 1-42, above 10000 nM; in the assay on Abeta total, above 10000 nM.
Turning to `N#Cc1ccc(C(=O)Nc2cccc([C@@]3(C4CC4)N=C(N)CO[C@H]3C(F)(F)F)c2)nc1` [Compound 225, (2R,3R)—N-{3-[5-amino-3-cyclopropyl-2-(trifluoromethyl)-3,6-dihydro-2H-1,4-oxazin-3-yl]phenyl}-5-cyanopyridine-2-carboxamide], the IC50 was 35.5 nM in assay [1], 6.31 nM in the assay with Abeta 1-42 and 6.61 nM in the assay with Abeta total.
`N#Cc1ccc(C(=O)Nc2cccc(C3(C4CC4)N=C(N)COC3C(F)(F)F)c2)nc1` (stereo not drawn) [Compound 226]: the “Biochemical FRET based assay pIC50” value in assay [1] worked out at 6.86. The “Cellular αLisa assay in SKNBE2 cells Abeta 42 pIC50” value with Abeta 1-42 came out at 7.41. Moreover, the “Cellular αLisa assay in SKNBE2 cells Abetatotal pIC50” value with Abeta total was 7.47.
For `COc1cnc(C(=O)Nc2ccc(F)c([C@@]3(C4CC4)N=C(N)CO[C@H]3C(F)(F)F)c2)cn1` [Compound 230], the IC50 was 45.7 nM in assay [1], 13.8 nM in the assay with Abeta 1-42 and 13.5 nM in the assay with Abeta total.
The corresponding values for `COc1ccc(C(=O)Nc2ccc(F)c([C@@]3(C4CC4)N=C(N)CO[C@H]3C(F)(F)F)c2)nc1` [Compound 231] are 33.9 nM, 12.3 nM and 11.7 nM.
As for `NC1=N[C@@](c2cc(NC(=O)c3ccc(Cl)cn3)ccc2F)(C2CC2)[C@H](C(F)(F)F)OC1` [Compound 233], the IC50 is 31.6 nM in assay [1], 12 nM in the assay on Abeta 1-42 and 12.9 nM in the assay on Abeta total.
In the same order, the values of `NC1=N[C@@](c2cc(NC(=O)c3ncc(Cl)cc3Cl)ccc2F)(C2CC2)[C@H](C(F)(F)F)OC1` [Compound 234] are 25.1 nM, 11.5 nM and 10.2 nM.
The corresponding values for `N#Cc1cnc(C(=O)Nc2ccc(F)c([C@@]3(C4CC4)N=C(N)CO[C@H]3C(F)(F)F)c2)c(Cl)c1` [Compound 235] are 33.1 nM, 14.5 nM and 14.1 nM.
Turning to `CC1(c2cc(-c3cncc(C#N)c3)ccc2F)N=C(N)COC1C(F)(F)F` (stereo not drawn) [Compound 239], the IC50 in assay [1] is 1050 nM; in the assay with Abeta 1-42, 224 nM; in the assay on Abeta total, 224 nM.
In the case of `C[C@]1(c2cccc(NC(=O)c3ccc(C#N)cn3)c2)N=C(N)CO[C@]1(F)C(F)(F)F` [Compound 240], the IC50 in assay [1] is 25.7 nM; in the assay with Abeta 1-42, 10.5 nM; with Abeta total, 10.2 nM.
The corresponding values for `C[C@]1(c2cccc(NC(=O)c3ccc(C#N)cn3)c2)N=C(N)CO[C@@]1(F)C(F)(F)F` [Compound 241] are 324 nM, 126 nM and 120 nM.
For `C[C@]1(c2cccc(NC(=O)c3ncc(Cl)cc3Cl)c2)N=C(N)CO[C@]1(F)C(F)(F)F` [Compound 242], the IC50 in assay [1] was 20.4 nM; in the assay on Abeta 1-42, 12.3 nM; in the assay with Abeta total, 12.3 nM.
Turning to `C[C@]1(c2cccc(NC(=O)c3ncc(Cl)cc3Cl)c2)N=C(N)CO[C@@]1(F)C(F)(F)F` [Compound 243], the IC50 in assay [1] was 263 nM; with Abeta 1-42, 240 nM; with Abeta total, 263 nM.
Take `C[C@]1(c2cccc(NC(=O)c3ncc(C#N)cc3Cl)c2)N=C(N)CO[C@]1(F)C(F)(F)F` [Compound 245]: the IC50 in assay [1] is 21.9 nM; with Abeta 1-42, 6.61 nM; in the assay on Abeta total it was 5.89 nM.
`C[C@]1(c2cccc(NC(=O)c3ncc(C#N)cc3Cl)c2)N=C(N)CO[C@@]1(F)C(F)(F)F` [Compound 246]: the results for the IC50 (in assay [1]; in the assay on Abeta 1-42; with Abeta total) were 316 nM, 120 nM and 102 nM, respectively.
As to `NC1=N[C@@](c2cccc(NC(=O)c3ncc(Cl)cc3F)c2)(C2CC2)[C@H](F)OC1` [Compound 249, (2S,3R)—N-[3-(5-amino-3-cyclopropyl-2-fluoro-3,6-dihydro-2H-1,4-oxazin-3-yl)phenyl]-5-chloro-3-fluoropyridine-2-carboxamide], the IC50 in assay [1] was 219 nM; in the assay with Abeta 1-42, 89.1 nM; with Abeta total, 81.3 nM.
The corresponding values for `NC1=N[C@@](c2cccc(NC(=O)c3ncc(Cl)cc3F)c2)(C2CC2)[C@@H](F)OC1` [Compound 250, (2R,3R)—N-[3-(5-amino-3-cyclopropyl-2-fluoro-3,6-dihydro-2H-1,4-oxazin-3-yl)phenyl]-5-chloro-3-fluoropyridine-2-carboxamide] are 60.3 nM, 43.7 nM and 39.8 nM.
For the compound `N#Cc1ccc(C(=O)Nc2cccc([C@@]3(C4CC4)N=C(N)CO[C@@H]3F)c2)nc1` [Compound 251], the figures for the IC50 (in assay [1]; with Abeta 1-42; in the assay on Abeta total) were 49 nM, 41.7 nM and 38 nM, respectively.
`N#Cc1cncc(-c2cccc([C@@]3(C4CC4)N=C(N)CO[C@H]3C(F)(F)F)c2)c1` [Compound 253, (5R,6R)-5-{3-[5-amino-3-cyclopropyl-2-(trifluoromethyl)-3,6-dihydro-2H-1,4-oxazin-3-yl]phenyl}pyridine-3-carbonitrile]: the IC50 in assay [1] is 155 nM; in the assay on Abeta 1-42, 49 nM; in the assay with Abeta total it was 50.1 nM.
In the same order, the values of `NC1=N[C@@](c2cccc(NC(=O)c3ncc(Cl)cc3Cl)c2)(C2CC2)[C@@H](F)OC1` [Compound 256] are 42.7 nM, 28.8 nM and 26.3 nM.
In the same order, the values of `NC1=N[C@@](c2cccc(-c3cncnc3)c2)(C2CC2)[C@@H](F)OC1` [Compound 257] are 891 nM, 1020 nM and 977 nM.

The record behind these values is patent US9828350B2, “5,6-dihydro-2H-[1,4]oxazin-3-yl-amine derivatives useful as inhibitors of beta-secretase (BACE)” (Janssen Pharmaceutica NV, priority 2010, dated 2017).
